Counter-ions that a name gives are not always drawn.
Key:
[1] = test system: Locomotor activity in drug-naive rats; assay: Locomotor activity in drug-naive rats; details: for Locomotor activity 0-60 min: drug-naive rats, recorded for 60 minutes; for Locomotor activity 30-60 min: drug-naive habituated rats, recorded between 30 and 60 minutes
[2] = test system: DOPAC (3,4-dihydroxyphenylacetic acid) in the rat striatum; assay: Increase of DOPAC in the rat striatum after systemic administration (in vivo neurochemistry); details: maximal effects limited to 350-400% of control, range covers 95% of fits, Inactive = inactive at 100 μmol/kg; for ED50 DOPAC*: s.c.; for ED50: sc
Text: After the behavioural activity sessions, the rats were decapitated and their brains rapidly taken out and put on an ice-cold petri-dish. The limbic forebrain, the striatum, the frontal cortex and the remaining hemispheral parts of each rat were dissected and frozen. Each brain part was subsequently analyzed with respect to its content of monoamines and their metabolites.
The monoamine transmitter substances (NA (noradrenaline), DA (dopamine), 5-HT (serotonin)) as well as their amine (NM (normethanephrine), 3-MT (3-methoxytyramine)) and acid (DOPAC (3,4-dihydroxyphenylacetic acid), 5-HIAA (5-hydroxyindoleacetic acid), HVA (homovanillic acid)) metabolites are quantified in brain tissue homogenates by HPLC separations and electrochemical detection.
The analytical method is based on two chromatographic separations dedicated for amines or acids. Two chromatographic systems share a common auto injector with a 10-port valve and two sample loops for simultaneous injection on the two systems. Both systems are equipped with a reverse phase column (Luna C18(2), dp 3 μm, 50*2 mm i.d., Phenomenex) and electrochemical detection is accomplished at two potentials on glassy carbon electrodes (MF-1000, Bioanalytical Systems, Inc.). Via a T-connection the column effluent is passed to the detection cell or to waste. This is accomplished by two solenoid valves, which block either the waste or detector outlet. By not letting the chromatographic front reach the detector, better detection conditions are achieved. The aqueous mobile phase (0.4 ml/min) for the acid system contains Citric Acid 14 mM, Sodium Citrate 10 mM, MeOH 15% (v/v) and EDTA 0.1 mM. Detection potentials relative to Ag/AgCl reference is 0.45 and 0.60V. The aqueous ion pairing mobile phase (0.5 ml/min) for the amine system contains Citric Acid 5 mM, Sodium Citrate 10 mM, MeOH 9% (v/v), MeCN 10.5% (v/v), Decane Sulfonic Acid 0.45 mM, and EDTA 0.1 mM. Detection potentials relative to Ag/AgCl reference is 0.45 and 0.65V.
ED50 values for the increase of DOPAC in striatum are calculated by curve fitting. For most compounds, the evaluation is based on 20 animals over the dose range 0, 3.7, 11, 33 and 100 μmol/kg s.c. in one single experiment. The DOPAC levels are normalised to control and fitted by least square minimization to the function “End-(End-Control)/(1+(dose/ED50)^Slope)”. The four parameters are fitted with the restrictions: ED50>0, 0.5<Slope<3, 350<End<400 or End=200% of control (see table 1). To estimate confidence levels for the parameters, the fit is repeated 100 times with a random evenly distributed squared weight (0 to 1) for every measurement value. Presented ED50-ranges cover 95% of these values.

[3] = biological target: hERG ion channel (Homo sapiens, UniProt Q12809); assay: Rb efflux through the hERG ion channel; assay type: cell-based; details: Rb efflux method
hERG ion channel, sequence (Q12809 whole entry): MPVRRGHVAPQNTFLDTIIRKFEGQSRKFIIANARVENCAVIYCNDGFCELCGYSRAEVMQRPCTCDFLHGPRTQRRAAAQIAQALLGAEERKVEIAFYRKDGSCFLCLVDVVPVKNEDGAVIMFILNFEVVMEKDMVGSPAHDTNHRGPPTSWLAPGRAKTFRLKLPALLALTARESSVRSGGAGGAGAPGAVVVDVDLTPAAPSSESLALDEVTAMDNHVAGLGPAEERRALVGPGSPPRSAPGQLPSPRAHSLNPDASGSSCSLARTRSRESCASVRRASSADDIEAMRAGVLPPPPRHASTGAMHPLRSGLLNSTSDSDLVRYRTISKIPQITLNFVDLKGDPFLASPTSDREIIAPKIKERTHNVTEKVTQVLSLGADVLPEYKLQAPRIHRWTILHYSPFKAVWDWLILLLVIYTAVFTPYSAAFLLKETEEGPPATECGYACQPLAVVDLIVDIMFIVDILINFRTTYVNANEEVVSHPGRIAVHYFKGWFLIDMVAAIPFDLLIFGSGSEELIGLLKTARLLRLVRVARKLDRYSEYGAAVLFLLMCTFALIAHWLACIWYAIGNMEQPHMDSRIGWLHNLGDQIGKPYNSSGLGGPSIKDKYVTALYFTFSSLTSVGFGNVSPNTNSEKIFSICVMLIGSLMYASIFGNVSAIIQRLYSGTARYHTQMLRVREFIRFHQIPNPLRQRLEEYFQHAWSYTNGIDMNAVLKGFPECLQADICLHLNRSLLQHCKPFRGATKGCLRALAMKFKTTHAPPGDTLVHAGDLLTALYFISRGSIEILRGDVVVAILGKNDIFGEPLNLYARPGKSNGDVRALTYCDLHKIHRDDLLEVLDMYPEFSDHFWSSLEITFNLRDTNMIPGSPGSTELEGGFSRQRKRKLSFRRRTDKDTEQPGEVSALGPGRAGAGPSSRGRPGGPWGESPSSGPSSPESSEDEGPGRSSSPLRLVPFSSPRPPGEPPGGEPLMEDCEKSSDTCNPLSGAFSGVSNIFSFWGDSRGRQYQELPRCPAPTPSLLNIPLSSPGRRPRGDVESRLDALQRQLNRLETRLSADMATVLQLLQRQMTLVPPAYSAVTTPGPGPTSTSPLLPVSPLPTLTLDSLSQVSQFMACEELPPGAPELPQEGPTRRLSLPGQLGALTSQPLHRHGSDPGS
Text: The substances according to the present invention display a low potency at inhibiting the hERG channel, as measured by IC50 in a Rb+ efflux assay (Development and evaluation of high throughput functional assay methods for hERG potassium channel. Tang W, Kang 1, Wu X, Rampe D, Wang L, Shen H, Li Z, Dunnington D, Garyantes T. J Biomol Screen. 2001 October; 6(5):325-31), indicating a low risk for QT interval prolongation and arrhythmia in man.

[4] = test system: Locomotor activity in MK-801 pre-treated rats; assay: Locomotor activity in MK-801 pre-treated rats; details: MK-801 0.7 mg/kg i.p. 90 minutes before test compound; 100 μmol/kg; recorded 30-60 minutes after administration

CCCN1CCC(O)(c2cccc(Cl)c2Cl)CC1 [drawing 35]
Locomotor activity 0-60 min ([1]; 11 μmol/kg): 8897 ± 801 counts/60 min ± SEM | Locomotor activity 0-60 min ([1]; 33 μmol/kg): 9739 ± 2025 counts/60 min ± SEM | Locomotor activity 0-60 min ([1]; 100 μmol/kg): 7499 ± 1620 counts/60 min ± SEM

CCCCN1CCC(O)(c2ccc(C)c(C(F)(F)F)c2)CC1 (as salt: hydrochloric acid salt) [Example 9, 1-BUTYL-4-[4-METHYL-3-(TRIFLUOROMETHYL)-PHENYL]PIPERIDIN-4-OL]
melting point: 197 to 198 °C

COCCN1CCC(O)(c2cccc(Cl)c2Cl)CC1
Locomotor activity 0-60 min ([1]; 11 μmol/kg): 7229 ± 769 counts/60 min ± SEM | Locomotor activity 0-60 min ([1]; 33 μmol/kg): 7669 ± 1029 counts/60 min ± SEM | Locomotor activity 0-60 min ([1]; 100 μmol/kg): 7542 ± 844 counts/60 min ± SEM

CCCCN1CCC(O)(c2ccc(C)c(C(F)(F)F)c2)CC1 [drawing 41]
Locomotor activity 30-60 min ([1]; 11 μmol/kg): 2092 ± 1437 counts/30 min ± SEM | Locomotor activity 30-60 min ([1]; 33 μmol/kg): 1337 ± 141 counts/30 min ± SEM | Locomotor activity 30-60 min ([1]; 100 μmol/kg): 1365 ± 460 counts/30 min ± SEM

CCN1CCC(O)(c2cc(F)cc(C(F)(F)F)c2)CC1
ED50 DOPAC* [2]: Inactive*** | ED50 DOPAC* ([2]; listed as comparative example 10): inactive

COCCN1CCC(O)(c2cccc(C(F)(F)F)c2F)CC1 [drawing 27]
ED50 [2]: 43 µmol/kg | IC50 [3]: 350 µM

COCCN1CCC(O)(c2ccc(Cl)c(C(F)(F)F)c2)CC1 [drawing 36]
Locomotor activity 0-60 min ([1]; 11 μmol/kg): 7945 ± 1230 counts/60 min ± SEM | Locomotor activity 0-60 min ([1]; 33 μmol/kg): 5041 ± 2022 counts/60 min ± SEM | Locomotor activity 0-60 min ([1]; 100 μmol/kg): 4493 ± 1081 counts/60 min ± SEM

CCCCN1CCC(O)(c2cccc(C(F)(F)F)c2F)CC1 [drawing 39]
Locomotor activity 0-60 min ([1]; 11 μmol/kg): 7668 ± 1716 counts/60 min ± SEM | Locomotor activity 0-60 min ([1]; 33 μmol/kg): 3213 ± 825 counts/60 min ± SEM | Locomotor activity 0-60 min ([1]; 100 μmol/kg): 1630 ± 302 counts/60 min ± SEM

CCCN1CCC(O)(c2cccc(C(F)(F)F)c2F)CC1 (as salt: hydrochloric acid salt) [Example 1, 4-[2-FLUORO-3-(TRIFLUOROMETHYL)PHENYL]-1-PROPYLPIPERIDIN-4-OL]
melting point: 175 to 177 °C

CCCCN1CCC(O)(c2ccc(C)c(C(F)(F)F)c2)CC1 [drawing 31]
ED50 [2]: 56 µmol/kg

CCCCN1CCC(O)(c2ccc(C)c(C(F)(F)F)c2)CC1 [drawing 34]
Locomotor activity 0-60 min ([1]; 11 μmol/kg): 8188 ± 1055 counts/60 min ± SEM | Locomotor activity 0-60 min ([1]; 33 μmol/kg): 2879 ± 503 counts/60 min ± SEM | Locomotor activity 0-60 min ([1]; 100 μmol/kg): 2961 ± 928 counts/60 min ± SEM

CCCN1CCC(O)(c2cccc(C(F)(F)F)c2F)CC1 [drawing 55]
Locomotor activity, MK + example 100 μmol/kg [4]: 17802 ± 6842 (P = 0.09) counts/30 min ± SEM

CCCN1CCC(O)(c2cccc(Cl)c2Cl)CC1 (as salt: hydrochloric acid salt)
melting point: 181 to 183 °C

CCCN1CCC(O)(c2ccc(F)c(C(F)(F)F)c2)CC1 [drawing 40]
Locomotor activity 0-60 min ([1]; 11 μmol/kg): 6114 ± 1032 counts/60 min ± SEM | Locomotor activity 0-60 min ([1]; 33 μmol/kg): 5906 ± 1340 counts/60 min ± SEM | Locomotor activity 0-60 min ([1]; 100 μmol/kg): 5546 ± 441 counts/60 min ± SEM

COCCN1CCC(O)(c2cccc(Cl)c2Cl)CC1 (as salt: hydrochloric acid salt)
melting point: 135 to 137 °C

CCCN1CCC(O)(c2cccc(Cl)c2Cl)CC1 [drawing 57]
Locomotor activity, MK + example 100 μmol/kg [4]: 9564 ± 4584 (P =0.16) counts/30 min ± SEM

CCCCN1CCC(O)(c2cccc(S(C)(=O)=O)c2F)CC1
ED50 DOPAC* [2]: Inactive***

CCN1CCC(O)(c2cccc(C(F)(F)F)c2F)CC1 [drawing 26]
ED50 [2]: 65 µmol/kg | IC50 [3]: 424 µM

CCN1CCC(O)(c2cccc(C(F)(F)F)c2F)CC1 [drawing 32]
Locomotor activity 0-60 min ([1]; 11 μmol/kg): 7481 ± 1266 counts/60 min ± SEM | Locomotor activity 0-60 min ([1]; 33 μmol/kg): 11085 ± 2020 counts/60 min ± SEM | Locomotor activity 0-60 min ([1]; 100 μmol/kg): 11288 ± 1339 counts/60 min ± SEM

CCCN1CCC(O)(c2ccc(F)c(C(F)(F)F)c2)CC1 [drawing 58]
Locomotor activity, MK + example 100 μmol/kg [4]: 7312 ± 4537 (P =0.0005) counts/30 min ± SEM

CCCN1CCC(O)(c2ccc(F)c(C(F)(F)F)c2)CC1 [drawing 43]
Locomotor activity 30-60 min ([1]; 11 μmol/kg): 213 ± 180 counts/30 min ± SEM | Locomotor activity 30-60 min ([1]; 33 μmol/kg): 436 ± 246 counts/30 min ± SEM | Locomotor activity 30-60 min ([1]; 100 μmol/kg): 258 ± 134 counts/30 min ± SEM

CCN1CCC(c2ccc(F)c(C(F)(F)F)c2)CC1 [reference compound]
IC50 [3]: 23 µM

CCCN1CCC(c2cccc(C(F)(F)F)c2)CC1
ED50 [2]: 84 µmol/kg

COCCN1CCC(O)(c2cccc(C(F)(F)F)c2F)CC1 (as salt: hydrochloric acid salt) [Example 4, 4-[2-FLUORO-3-(TRIFLUOROMETHYL)PHENYL]-1-(2-M ETHOXYETHYL)PIPERIDIN-4-OL]
melting point: 159 to 160 °C

CCCCN1CCC(O)(c2cccc(C(F)(F)F)c2F)CC1 (as salt: hydrochloric acid salt) [Example 5, 4-[2-FLUORO-3-(TRIFLUOROMETHYL)PHENYL]-1-BUTYLPIPERIDIN-4-OL]
melting point: 138 °C

CCCN1CCC(O)(c2cccc(S(C)(=O)=O)c2)CC1 [drawing 22]
ED50 DOPAC* [2]: Inactive***

COCCN1CCC(O)(c2ccc(Cl)c(C(F)(F)F)c2)CC1 [drawing 30]
ED50 [2]: 32 µmol/kg | IC50 [3]: 68 µM

CCCN1CCC(c2cccc(Cl)c2Cl)CC1 [reference compound]
ED50 [2]: 41 µmol/kg | IC50 [3]: 5.66 µM

CCCN1CCC(O)(c2cccc(C(F)(F)F)c2F)CC1 [drawing 37]
Locomotor activity 0-60 min ([1]; 11 μmol/kg): 11764 ± 3106 counts/60 min ± SEM | Locomotor activity 0-60 min ([1]; 33 μmol/kg): 7506 ± 905 counts/60 min ± SEM | Locomotor activity 0-60 min ([1]; 100 μmol/kg): 3698 ± 294 counts/60 min ± SEM

CCCN1CCC(O)(c2ccc(F)c(C(F)(F)F)c2)CC1 (as salt: hydrochloric acid salt) [Example 8, 4-[4-FLUORO-3-(TRIFLUOROMETHYL)PHENYL]-1-PROPYLPIPERIDIN-4-OL]
melting point: 179 to 181 °C

CCCCN1CCC(O)(c2cccc(C(F)(F)F)c2F)CC1 [drawing 28]
ED50 [2]: 13 µmol/kg | IC50 [3]: 69 µM

COCCN1CCC(O)(c2ccc(Cl)c(C(F)(F)F)c2)CC1 (as salt: hydrochloric acid salt) [Example 2, 4-[4-CHLORO-3-(TRIFLUOROMETHYL)PHENYL]-1-(2-METHOXYETHYL)PIPERIDIN-4-OL]
melting point: 181 to 183 °C

CCCN1CCC(O)(c2ccc(F)c(C(F)(F)F)c2)CC1 [drawing 29]
ED50 [2]: 76 µmol/kg | IC50 [3]: 60 µM

CCCN1CCC(c2cccc(C(F)(F)F)c2F)CC1 [reference compound]
ED50 [2]: 9 µmol/kg | IC50 [3]: 7.97 µM

CCCN1CCC(O)(c2cccc(C(F)(F)F)c2OC)CC1
ED50 DOPAC* [2]: Inactive***

CCCN1CCC(O)(c2cccc(C(F)(F)F)c2F)CC1 [drawing 42]
Locomotor activity 30-60 min ([1]; 11 μmol/kg): 3200 ± 1817 counts/30 min ± SEM | Locomotor activity 30-60 min ([1]; 33 μmol/kg): 1130 ± 344 (P = 0.06) counts/30 min ± SEM | Locomotor activity 30-60 min ([1]; 100 μmol/kg): 541 ± 145 counts/30 min ± SEM

CCCN1CCC(O)(c2cccc(C(F)(F)F)c2F)CC1 [drawing 25]
ED50 [2]: 13 µmol/kg | IC50 [3]: 161 µM

COCCN1CCC(O)(c2cccc(C(F)(F)F)c2F)CC1 [drawing 38]
Locomotor activity 0-60 min ([1]; 11 μmol/kg): 6422 ± 1190 counts/60 min ± SEM | Locomotor activity 0-60 min ([1]; 33 μmol/kg): 6016 ± 1708 counts/60 min ± SEM | Locomotor activity 0-60 min ([1]; 100 μmol/kg): 4296 ± 847 counts/60 min ± SEM

CCN1CCC(O)(c2cccc(C(F)(F)F)c2F)CC1 (as salt: hydrochloric acid salt) [Example 3, 4-[2-FLUORO-3-(TRIFLUOROMETHYL)PHENYL]-1-ETHYLPIPERIDIN-4-OL]
melting point: 177 to 180 °C

— patent publication US7579474B2, “Substituted piperidines as modulators of dopamine neurotransmission” (NSAB, Filial AF Neurosearch AB, Sverige, priority 2004, dated 2009)
